# Experimental data taken from patent publication US9181236B2, “2-spiro-substituted iminothiazines and their mono-and dioxides as bace inhibitors, compositions and their use” (Merck Sharp & Dohme Corp., priority 2011, dated 2015).
# Target: soluble human BACE1 catalytic domain (Homo sapiens (Human), UniProt P56817)
# Assay: BACE1 HTRF FRET Assay
# Assay type: biochemical
# Conditions: Ki calculated from IC50 using the Cheng-Prusoff equation
# Excerpt: A homogeneous time-resolved FRET assay can be used to determine IC50 values for inhibitors of the soluble human BACE1 catalytic domain. This assay monitors the increase of 620 nm fluorescence that resulted from BACE1 cleavage of an APPswedish APP^swe mutant peptide FRET substrate (QSY7-[…]-Europium-amide). This substrate contains an N-terminal QSY7 moiety that serves as a quencher of the C-terminal Europium fluorophore (620 nm Em). In the absence of enzyme activity, 620 nm fluorescence is low in the assay and increased linearly over 3 hours in the presence of uninhibited BACE1 enzyme Inhibition of BACE1 cleavage of the QSY7-APP^swe-Eu substrate by inhibitors is manifested as a suppression of 620 nm fluorescence.
# Reactions are initiated by addition of 10 μl of 600 nM QSY7-APP^swe-Eu substrate (200 nM final) to give a final reaction volume of 30 μl in a 384 well Nunc HTRF plate. The reactions are incubated at 30° C. for 1.5 hours. The 620 nm fluorescence is then read on a Rubystar HTRF plate reader (BMG Labtechnologies) using a 50 millisecond delay followed by a 400 millisecond acquisition time window Inhibitor IC50 values are derived from non-linear regression analysis of concentration response curves.
# Sequence of soluble human BACE1 catalytic domain (P56817 75-416): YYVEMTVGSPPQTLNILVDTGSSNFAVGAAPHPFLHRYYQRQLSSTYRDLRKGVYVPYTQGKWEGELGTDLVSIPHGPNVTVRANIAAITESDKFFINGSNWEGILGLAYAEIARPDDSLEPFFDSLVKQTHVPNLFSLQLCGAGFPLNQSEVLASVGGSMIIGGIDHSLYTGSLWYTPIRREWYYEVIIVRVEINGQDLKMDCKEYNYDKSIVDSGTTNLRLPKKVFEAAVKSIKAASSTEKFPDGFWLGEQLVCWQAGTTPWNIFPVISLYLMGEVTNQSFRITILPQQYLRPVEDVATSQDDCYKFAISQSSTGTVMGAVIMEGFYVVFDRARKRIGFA
row,Ki [nM],SMILES
1,8560,C[C@@]1(c2cc(-n3cc(-c4cccnc4)nn3)ccc2F)CS(=O)(=O)C2(CCC2)C(=N)N1 [Example 39b]
2,2960,C[C@@]1(c2cc(NC(=O)CC3CC3)ccc2F)CS(=O)(=O)[C@]2(CCOC2)C(=N)N1 [Example 81g]
3,1520,CC(=O)Nc1ccc(F)c([C@]2(C)CS(=O)(=O)[C@]3(CCOC3)C(=N)N2)c1 [Example 81x]
4,105,C[C@@]1(c2sc(C#CCCNS(C)(=O)=O)cc2Cl)CS(=O)(=O)C2(CCC2)C(=N)N1 [Example 77c]
5,146,C[C@@]1(c2cc(NC(=O)c3ncccc3C(F)(F)F)ccc2F)CS(=O)(=O)[C@]2(CCOC2)C(=N)N1 [Example 81ab]
6,304,C[C@@]1(c2cc(NC(=O)c3ccc(OC(F)(F)F)cn3)ccc2F)CS(=O)(=O)[C@]2(CCOC2)C(=N)N1 [Example 81aa]
7,949,CCC(=O)Nc1ccc(F)c([C@]2(C)CS(=O)(=O)[C@]3(CCOC3)C(=N)N2)c1 [Example 81l]
8,5120,C[C@@]1(c2sc(C(=O)NCc3cccc(F)c3)cc2Cl)CS(=O)(=O)C2(CCCCC2)C(=N)N1 [Example 80d]
9,41,Cc1ccc(C(=O)Nc2ccc(F)c([C@]3(C)CS(=O)(=O)[C@]4(CCOC4)C(=N)N3)c2)nc1 [Example 81y]
10,41,C[C@@]1(c2sc(C(=O)NCc3cnn4ccccc34)cc2Cl)CS(=O)(=O)C2(CCCCC2)C(=N)N1 [Example 80b]
11,3690,C[C@@]1(c2sc(-c3cncc(N4CCOCC4)c3)cc2Cl)CS(=O)(=O)[C@@]2(CCOC2)C(=N)N1 [Example 63j]
12,545,C[C@@]1(c2sc(-c3cncnc3)cc2Cl)CS(=O)(=O)C2(CCCCC2)C(=N)N1 [Example 47]
13,674,C[C@@]1(c2sc(-c3ccnc(-c4ccoc4)c3)cc2Cl)CS(=O)(=O)[C@@]2(CCOC2)C(=N)N1 [Example 63l]
14,6.5,C[C@@]1(c2cc(NC(=O)c3ncc(Cl)cc3F)ccc2F)CS(=O)(=O)C2(CCOCC2)C(=N)N1 [Example 35a]
15,2080,C[C@@]1(c2cc(NC(=O)C3CCC3)ccc2F)CS(=O)(=O)[C@]2(CCOC2)C(=N)N1 [Example 81f]
16,555,COc1cncc(-c2cc(Cl)c([C@]3(C)CS(=O)(=O)C4(CCOCC4)C(=N)N3)s2)c1 [Example 53]
17,904,COc1ccc(C(=O)Nc2ccc(F)c([C@]3(C)CS(=O)(=O)[C@]4(CCOC4)C(=N)N3)c2)nn1 [Example 81ae]
18,433,C[C@@]1(c2cc(NC(=O)c3cscn3)ccc2F)CS(=O)(=O)[C@]2(CCOC2)C(=N)N1 [Example 81u]
19,300,C[C@@]1(c2cc(NC(=O)c3ccno3)ccc2F)CS(=O)(=O)[C@]2(CCOC2)C(=N)N1 [Example 81b]
20,73.1,C[C@@]1(c2sc(-c3cncnc3)cc2Cl)CS(=O)(=O)C2(CCCC2)C(=N)N1 [Example 43]
21,1330,Cc1cc(C(=O)Nc2ccc(F)c([C@]3(C)CS(=O)(=O)[C@]4(CCOC4)C(=N)N3)c2)no1 [Example 81af]

row,Ki [nM],SMILES
1,2160,Cc1cncc(NC(=O)c2cc(Cl)c([C@]3(C)CS(=O)(=O)C4(CCCCC4)C(=N)N3)s2)c1 [Example 80g]
2,180,C[C@@]1(c2cc(NC(=O)c3cocn3)ccc2F)CS(=O)(=O)[C@]2(CCOC2)C(=N)N1 [Example 81c]
3,37,C[C@@]1(c2sc(-c3cccc(-c4nnco4)c3)cc2Cl)CS(=O)(=O)C2(CCCC2)C(=N)N1 [Example 43a]
4,1290,C[C@@]1(c2cc(-c3cccc(C#N)c3)ccc2F)CS(=O)(=O)C2(CCCC2)C(=N)N1 [Example 36]
5,5740,C[C@@]1(c2sc(-c3cccc(N4CCCC4)c3)cc2Cl)CS(=O)(=O)C2(CCOCC2)C(=N)N1 [Example 56]
6,34.9,C[C@@]1(c2sc(-c3cccc(-c4nnco4)c3)cc2Cl)CS(=O)(=O)C2(CCOCC2)C(=N)N1 [Example 57a]
7,2.7,C[C@@]1(c2cc(NC(=O)c3ncc(Cl)cc3Cl)ccc2F)CS(=O)(=O)C2(CCCC2)C(=N)N1 [Example 18]
8,2360,C[C@@]1(c2sc(C#CCN3CCOCC3)cc2Cl)CS(=O)(=O)C2(CCC2)C(=N)N1 [Example 77d]
9,3170,C[C@@]1(c2cc(NC(=O)c3ccc(S(C)(=O)=O)cn3)ccc2F)CS(=O)(=O)[C@]2(CCOC2)C(=N)N1 [Example 81z]
10,2420,CC(C)(O)c1cncc(-c2cc(Cl)c([C@]3(C)CS(=O)(=O)[C@]4(CCOC4)C(=N)N3)s2)c1 [Example 62m]
11,4.1,C[C@@]1(c2cc(NC(=O)c3ncc(Cl)cc3Cl)ccc2F)CS(=O)(=O)C2(CCOCC2)C(=N)N1 [Example 31]
12,6050,Cc1cc2cccc(NC(=O)c3cc(Cl)c([C@]4(C)CS(=O)(=O)C5(CCCCC5)C(=N)N4)s3)c2o1 [Example 80i]
13,741,C[C@@]1(c2cc(NC(=O)C3(C#N)CC3)ccc2F)CS(=O)(=O)[C@]2(CCOC2)C(=N)N1 [Example 81i]
14,1780,CCc1cncc(-c2cc(Cl)c([C@]3(C)CS(=O)(=O)[C@@]4(CCOC4)C(=N)N3)s2)c1 [Example 63i]
15,4150,C[C@@]1(c2sc(C(=O)NCc3ccncn3)cc2Cl)CS(=O)(=O)C2(CCCCC2)C(=N)N1 [Example 80c]
16,1250,C[C@@]1(c2cc(NC(=O)C3CC3(F)F)ccc2F)CS(=O)(=O)[C@]2(CCOC2)C(=N)N1 (some centres unmarked) [Example 81s]
17,1940,C[C@@]1(c2cc(NC(=O)c3cncs3)ccc2F)CS(=O)(=O)[C@]2(CCOC2)C(=N)N1 [Example 81t]
18,1330,COc1cccc2cc(-c3ccc(F)c([C@]4(C)CS(=O)(=O)C5(CCCC5)C(=N)N4)c3)n(C(=O)OC(C)(C)C)c12 [Example 39]
19,688,C[C@@]1(c2sc(-c3cncnc3)cc2Cl)CS(=O)(=O)C2(CCOCC2)C(=N)N1 [Example 51]
20,939,C[C@@]1(c2cc(-c3cncc(C#N)c3)ccc2F)CS(=O)(=O)C2(CCCC2)C(=N)N1 [Example 38]
21,121,C[C@@]1(c2sc(C(=O)NCc3ccsn3)cc2Cl)CS(=O)(=O)C2(CCCCC2)C(=N)N1 [Example 80k]

row,Ki [nM],SMILES
1,639,C[C@@]1(c2cc(NC(=O)C(F)F)ccc2F)CS(=O)(=O)[C@]2(CCOC2)C(=N)N1 [Example 81n]
2,374,C[C@@]1(c2sc(-c3cncnc3)cc2Cl)CS(=O)(=O)C2(CCC2)C(=N)N1 [Example 60]
3,144,C[C@@]1(c2sc(C(=O)NCc3cnsn3)cc2Cl)CS(=O)(=O)C2(CCCCC2)C(=N)N1 [Example 80a]
4,588,C[C@@]1(c2sc(C(=O)NCc3ccc(F)cc3)cc2Cl)CS(=O)(=O)C2(CCCCC2)C(=N)N1 [Example 80e]
5,3710,C[C@@]1(c2cc(NC(=O)C3CCC3(F)F)ccc2F)CS(=O)(=O)[C@]2(CCOC2)C(=N)N1 (some centres unmarked) [Example 81o]
6,4180,CC1(C(=O)Nc2ccc(F)c([C@]3(C)CS(=O)(=O)[C@]4(CCOC4)C(=N)N3)c2)COC1 [Example 81p]
7,108,Cc1cnc(C(=O)Nc2ccc(F)c([C@]3(C)CS(=O)(=O)[C@]4(CCOC4)C(=N)N3)c2)cn1 [Example 81h]
8,986,C[C@@]1(c2sc(-c3ccnc(-c4cccs4)c3)cc2Cl)CS(=O)(=O)[C@@]2(CCOC2)C(=N)N1 [Example 63m]
9,1660,C[C@@]1(c2sc(-c3cncc(N4CCOCC4)c3)cc2Cl)CS(=O)(=O)[C@]2(CCOC2)C(=N)N1 [Example 62i]
10,1400,C[C@@]1(c2cc(NC(=O)[C@H]3CCCO3)ccc2F)CS(=O)(=O)[C@]2(CCOC2)C(=N)N1 [Example 81j]
11,207,COc1cccc(NC(=O)c2cc(Cl)c([C@]3(C)CS(=O)(=O)C4(CCCCC4)C(=N)N3)s2)n1 [Example 80l]
12,3170,C[C@@]1(c2cc(NC(=O)CC(F)(F)F)ccc2F)CS(=O)(=O)[C@]2(CCOC2)C(=N)N1 [Example 81r]
13,2320,C[C@@]1(c2cc(-n3cc(-c4ccccc4)nn3)ccc2F)CS(=O)(=O)C2(CCC2)C(=N)N1 [Example 39a]
14,313,CC(F)(F)C(=O)Nc1ccc(F)c([C@]2(C)CS(=O)(=O)[C@]3(CCOC3)C(=N)N2)c1 [Example 81ad]
15,2010,Cn1ccc(NC(=O)c2cc(Cl)c([C@]3(C)CS(=O)(=O)C4(CCCCC4)C(=N)N3)s2)n1 [Example 80j]
16,82,C[C@@]1(c2cc(NC(=O)c3ccc(Cl)cc3)ccc2F)CS(=O)(=O)[C@]2(CCOC2)C(=N)N1 [Example 81m]
17,849,C[C@@]1(c2sc(-c3ccnc(-c4ccccc4)c3)cc2Cl)CS(=O)(=O)[C@@]2(CCOC2)C(=N)N1 [Example 63k]
18,249,C[C@@]1(c2sc(C(=O)NCc3cnoc3)cc2Cl)CS(=O)(=O)C2(CCCCC2)C(=N)N1 [Example 80]
19,5.7,C[C@@]1(c2cc(NC(=O)c3ncc(Cl)cc3C#N)ccc2F)CS(=O)(=O)[C@]2(CCOC2)C(=N)N1 [Example 81ag]

# Same assay, conditions: read-out: BACE1 % Inh. at 10 μM
row,inhibition at 10 µM [%],SMILES
1,32,Cc1ncc(NC(=O)c2cc(Cl)c([C@]3(C)CS(=O)(=O)C4(CCCCC4)C(=N)N3)s2)cn1 [Example 80h]
2,58,C[C@@]1(c2cc(NC(=O)c3ccc(F)cc3F)ccc2F)CS(=O)(=O)[C@]2(CCOC2)C(=N)N1 [Example 81v]
3,35,CC(C)C(F)(F)c1ccc(C(=O)Nc2ccc(F)c([C@]3(C)CS(=O)(=O)[C@]4(CCOC4)C(=N)N3)c2)nc1 [Example 81ac]
4,15,C[C@@]1(c2cc(NC(=O)C3CCOCC3)ccc2F)CS(=O)(=O)[C@]2(CCOC2)C(=N)N1 [Example 81q]
